Assay in all cases: growth of human tumour cells (NCI), 48 h
Test [1] has as its system SNB-75.
Test [2] deals with LOX IMVI.
Test [3] deals with UACC-62.
Test [4] deals with MDA-MB-435.
Test [5] relates to SF-295.
For test [6], the system named is TK-10.
The subject of test [7] is COLO 205.
Test [8] relates to NCI-H23.
Test [9] deals with U-251.
The test system of test [10] is ACHN.
For test [11], the system named is MCF7.
In test [12] the test system is SN12C.
Test [13] relates to A498.
Test [14] relates to CCRF-CEM.
Test [15] deals with SF-268.
Test [16] has as its system OVCAR-3.
Test [17] deals with RXF 393.
The subject of test [18] is EKVX.
For test [19], the system named is K562.
Test [20] deals with KM12.

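Five compound concentrations were applied to cells in 96-well plates for 48 hours; endpoints were derived by simple linear interpolation of the resulting dose-response curve. GI50 is the concentration that inhibits growth by half.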 Activity calls are given as the source filed them. Rule as the data show it: active = GI50 up to about 1.1 µM and inactive = higher. Some results are limits rather than exact numbers.

`Cc1c2c(n3c(nc4ccccc43)c1C#N)N(c1ccc(F)cc1)CC2`: the GI50 in test [1], in [2], in test [3], in test [4], in test [5] and in test [6] was > 100 µM (inactive) throughout. In addition, the GI50 in [7], in [8], in [9], in test [10], in test [11] and in test [12] was > 100 µM (inactive) throughout. In addition, the GI50 in test [13], in [14], in test [15], in [16] and in test [17] was > 100 µM (inactive) in each case.
With `CN(C)c1ccc(/C=N/c2nc3cc4sc(/N=C/c5ccc(N(C)C)cc5)nc4cc3s2)cc1`, the GI50 is > 100 µM (inactive) in test [18]; 63.2 µM (inactive) in [1]; 47.8 µM (inactive) in test [2]; > 100 µM (inactive) in test [3]; 33.7 µM (inactive) in test [4]; > 100 µM (inactive) in test [5]. The GI50 was 80.7 µM (inactive) in test [6]; 70.1 µM (inactive) in test [19]; 4.75 µM (inactive) in test [7]; 28.5 µM (inactive) in test [8]; 46.7 µM (inactive) in test [20]; 50.5 µM (inactive) in [9]. Also, the GI50 in test [10] was 66.1 µM (inactive); in test [11], 12.6 µM (inactive); in test [12], 83.9 µM (inactive); in test [13], 26.7 µM (inactive); in test [14], 6.3 µM (inactive); in [15], 45 µM (inactive). Besides, the GI50 in test [16] was 36.9 µM (inactive).
With `CN(C)c1c(Cl)c(=O)oc2c1ccc1nc(-c3ccccc3)sc12`, the GI50 in [18] was > 100 µM (inactive); in test [2], > 100 µM (inactive); in test [3], 64.6 µM (inactive); in test [4] it was > 100 µM (inactive); in test [5], > 100 µM (inactive); in test [6], > 100 µM (inactive). The GI50 in test [19], in [7], in test [8], in [20], in [9] and in test [10] was > 100 µM (inactive) each time. The GI50 in test [11] is 57.7 µM (inactive); in [12], > 100 µM (inactive); in test [13], > 100 µM (inactive); in [14], > 100 µM (inactive); in test [15], > 100 µM (inactive); in test [16], > 100 µM (inactive). For the same molecule, the GI50 in [17] is 55.3 µM (inactive).
As to `COc1ccc(/C=C2\N=C(c3ccccc3)OC2=O)cc1OC(C)=O`, the GI50 was 52.5 µM (inactive) in test [1]; 51.3 µM (inactive) in [2]; > 100 µM (inactive) in [3]; 51.8 µM (inactive) in [4]; > 100 µM (inactive) in test [6]; 44.9 µM (inactive) in test [19]. Also, the GI50 is > 100 µM (inactive) in [7]; 65.6 µM (inactive) in [8]; 39.8 µM (inactive) in test [9]; 33.6 µM (inactive) in test [10]; 53.2 µM (inactive) in test [11]; > 100 µM (inactive) in test [12]. The GI50 in test [13] was > 100 µM (inactive); in test [14] it was 27.7 µM (inactive); in [15] it was 27.3 µM (inactive); in test [16], 48.9 µM (inactive); in test [17], > 100 µM (inactive).
Take `CC(SC(=S)N1CCCC1)C(=O)Nc1nnc(-c2ccc(Cl)cc2)o1` (configuration not stated): the GI50 in [1] was 45.9 µM (inactive); in test [2], 18.7 µM (inactive); in test [3] it was 30.5 µM (inactive); in test [4], 36.1 µM (inactive); in test [6], 50.4 µM (inactive); in test [19], 8.85 µM (inactive). For the same molecule, the GI50 in test [7] was 37.6 µM (inactive); in test [8] it was 39.5 µM (inactive); in test [9], 29.9 µM (inactive); in test [10], 33 µM (inactive); in [11], 33.7 µM (inactive); in test [12], 17.7 µM (inactive). Further, the GI50 in [13] was 34 µM (inactive); in test [14] it was < 0.01 µM (active); in [15], 18 µM (inactive); in test [16], 32.7 µM (inactive); in [17], 55.2 µM (inactive).
For `FC(F)(F)c1ccccc1N1CCN(c2nc(-c3cccs3)nc3ccc(Br)cc23)CC1`, the GI50 in test [18] is 24.4 µM (inactive); in [1], 24.9 µM (inactive); in test [2] it was 34.7 µM (inactive); in [3] it was 23 µM (inactive); in test [4], 23.9 µM (inactive); in test [5], 30.3 µM (inactive). Also, the GI50 in [6] was 15.8 µM (inactive); in test [19], 63.1 µM (inactive); in test [7] it was 23.4 µM (inactive); in test [8], 34.4 µM (inactive); in [20] it was 13.4 µM (inactive); in test [9], 44.4 µM (inactive). Moreover, the GI50 in [10] is 36.6 µM (inactive); in test [11], 1.06 µM (active); in test [12], 45.8 µM (inactive); in test [13] it was 71.3 µM (inactive); in test [14], 0.581 µM (active); in test [15], 48.8 µM (inactive). Further, the GI50 in [16] is 10.9 µM (inactive).
As for `COC(=O)[C@H](COC(C)(C)C)NC(=O)N[C@H](C)c1ccccc1`, the GI50 in [18], in test [1], in test [2], in [3], in test [4] and in test [5] was > 100 µM (inactive) each time. The GI50 in [6], in [19], in [7], in test [8], in test [20] and in test [9] was > 100 µM (inactive) each time. Moreover, the GI50 in [10], in test [11], in [12], in test [13], in test [14] and in test [15] was > 100 µM (inactive) in each case. The GI50 in test [16] is > 100 µM (inactive).
Turning to `COC(=O)c1cc(S(=O)(=O)NC2=NNC(C)CN2)c(S)cc1Cl` (configuration not stated), the GI50 is 90.2 µM (inactive) in test [18]; 24.7 µM (inactive) in test [1]; 37.5 µM (inactive) in test [2]; 47 µM (inactive) in [3]; 40.3 µM (inactive) in test [4]; 54.3 µM (inactive) in test [5]. The GI50 in test [6] is > 100 µM (inactive); in [19], 47.1 µM (inactive); in [7] it was 52.7 µM (inactive); in [8], 44.8 µM (inactive); in test [20], 40.4 µM (inactive); in [9], 37.4 µM (inactive). Further, the GI50 in test [10] was > 100 µM (inactive); in [11], 42 µM (inactive); in test [12] it was > 100 µM (inactive); in [13], 34.5 µM (inactive); in [14] it was 84.1 µM (inactive); in test [15], 13.5 µM (inactive). In addition, the GI50 in [16] was 38.3 µM (inactive).
As to `CC1(C)C2CCC3CC(CCC#N)CCC3C21C#N` (configuration not stated), the GI50 in test [18], in test [2], in [3], in test [4], in [5] and in [6] was > 100 µM (inactive) in each case. Further, the GI50 was > 100 µM (inactive) in [19]; > 100 µM (inactive) in test [7]; > 100 µM (inactive) in test [8]; 18 µM (inactive) in [20]; > 100 µM (inactive) in test [9]; > 100 µM (inactive) in [10]. Besides, the GI50 in [11], in [12], in test [13], in test [14], in test [15] and in test [16] was > 100 µM (inactive) each time. In addition, in test [17], the GI50 is > 100 µM (inactive).
Consider `Cn1c(N)cc(=O)nc1N`, for which the GI50 in [18], in test [1], in test [2], in [3], in test [4] and in test [5] was > 100 µM (inactive) in each case. The GI50 in test [6], in test [19], in test [7], in test [8], in test [20] and in [9] was > 100 µM (inactive) throughout. Moreover, the GI50 in [10], in test [11], in [12], in test [13], in [14] and in test [15] was > 100 µM (inactive) each time. Also, the GI50 in test [16] was > 100 µM (inactive).
For the molecule `C[C@@H](Oc1ccc(Oc2cnc3ccc(Cl)cc3n2)cc1)C(=O)O` [R(+)XK469], the GI50 is > 100 µM (inactive) in [1]; > 100 µM (inactive) in test [2]; 66.7 µM (inactive) in test [3]; > 100 µM (inactive) in test [4]; > 100 µM (inactive) in test [5]; > 100 µM (inactive) in test [6]. For the same molecule, the GI50 in test [7] is 59.3 µM (inactive); in [8] it was > 100 µM (inactive); in test [20], 76.6 µM (inactive); in test [9] it was > 100 µM (inactive); in test [10], 87.9 µM (inactive); in test [11], 39 µM (inactive). Also, the GI50 in test [12] is > 100 µM (inactive); in [13], > 100 µM (inactive); in test [14] it was 97.3 µM (inactive); in [15] it was > 100 µM (inactive); in test [16] it was 95.7 µM (inactive); in test [17], > 100 µM (inactive).
